# In patent US20260232616A1, “USE OF SIVELESTAT IN ANALGESIA” (SHANGHAI HUILUN PHARMACEUTICAL CO., LTD., priority 2023, published 2026):
# Marks after values point to notes of the source that are not given here.
# Tested on: rat model of postoperative pain
# Assay: Mechanical allodynia testing in a rat model of postoperative pain (hind paw incision)
# Format: in vivo
# Settings: for Mechanical allodynia threshold (PWT (g)): single dose
# [1] = Sivelestat sodium 100 mg/kg IP, 0.5 h
# [2] = Sivelestat sodium 100 mg/kg IP, 1 h
# [3] = Sivelestat sodium 100 mg/kg IP, 2 h
# [4] = Sivelestat sodium 150 mg/kg IP, 0.5 h
# [5] = Sivelestat sodium 150 mg/kg IP, 1 h
# [6] = Sivelestat sodium 150 mg/kg IP, 2 h
# [7] = Sivelestat sodium 150 mg/kg IP, 6 h
# [8] = Sivelestat sodium 200 mg/kg IP, 0.5 h
# [9] = Sivelestat sodium 200 mg/kg IP, 1 h
# [10] = Sivelestat sodium 200 mg/kg IP, 2 h
# [11] = Sivelestat sodium 300 mg/kg IP, 0.5 h
# [12] = Sivelestat sodium 300 mg/kg IP, 1 h
# [13] = Sivelestat sodium 300 mg/kg IP, 2 h
smiles,measurement,setting,value
"CC(C)(C)C(=O)Oc1ccc(S(=O)(=O)Nc2ccccc2C(=O)NCC(=O)O)cc1 [Sivelestat sodium, sivelestat sodium]",% MPE (anti-allodynic effect),[1],25.2* %
same,% MPE (anti-allodynic effect),[2],42.4*** %
same,% MPE (anti-allodynic effect),[3],44.1*** %
same,Mechanical allodynia threshold (PWT (g)),[1],5.5 g
same,Mechanical allodynia threshold (PWT (g)),[2],7.8 g
same,Mechanical allodynia threshold (PWT (g)),[3],8.3 g
same,% MPE (anti-allodynic effect),[4],31.4*** %
same,% MPE (anti-allodynic effect),[5],51.1*** %
same,% MPE (anti-allodynic effect),[6],48.4*** %
same,% MPE (anti-allodynic effect),[7],11.3%
same,Mechanical allodynia threshold (PWT (g)),[4],6.3 g
same,Mechanical allodynia threshold (PWT (g)),[5],8.9 g
same,Mechanical allodynia threshold (PWT (g)),[6],8.8 g
same,Mechanical allodynia threshold (PWT (g)),[7],3.9 g
same,% MPE (anti-allodynic effect),[8],32.6*** %
same,% MPE (anti-allodynic effect),[9],55.1*** %
same,% MPE (anti-allodynic effect),[10],45.3*** %
same,Mechanical allodynia threshold (PWT (g)),[8],6.4 g
same,Mechanical allodynia threshold (PWT (g)),[9],9.4 g
same,Mechanical allodynia threshold (PWT (g)),[10],8.4 g
same,% MPE (anti-allodynic effect),[11],37.5*** %
same,% MPE (anti-allodynic effect),[12],49*** %
same,% MPE (anti-allodynic effect),[13],52.6*** %
same,Mechanical allodynia threshold (PWT (g)),[11],7.0 g
same,Mechanical allodynia threshold (PWT (g)),[12],8.6 g
same,Mechanical allodynia threshold (PWT (g)),[13],9.3 g
same,duration of a high level of analgesic efficacy,"rat postoperative pain model, conclusion from Embodiment 1",more than 6 h
